The structures appear in SMILES notation.

The target in data set [1] is T1, Glucocorticoid receptor (Homo sapiens, UniProt P04150).
T1 sequence (P04150 whole entry): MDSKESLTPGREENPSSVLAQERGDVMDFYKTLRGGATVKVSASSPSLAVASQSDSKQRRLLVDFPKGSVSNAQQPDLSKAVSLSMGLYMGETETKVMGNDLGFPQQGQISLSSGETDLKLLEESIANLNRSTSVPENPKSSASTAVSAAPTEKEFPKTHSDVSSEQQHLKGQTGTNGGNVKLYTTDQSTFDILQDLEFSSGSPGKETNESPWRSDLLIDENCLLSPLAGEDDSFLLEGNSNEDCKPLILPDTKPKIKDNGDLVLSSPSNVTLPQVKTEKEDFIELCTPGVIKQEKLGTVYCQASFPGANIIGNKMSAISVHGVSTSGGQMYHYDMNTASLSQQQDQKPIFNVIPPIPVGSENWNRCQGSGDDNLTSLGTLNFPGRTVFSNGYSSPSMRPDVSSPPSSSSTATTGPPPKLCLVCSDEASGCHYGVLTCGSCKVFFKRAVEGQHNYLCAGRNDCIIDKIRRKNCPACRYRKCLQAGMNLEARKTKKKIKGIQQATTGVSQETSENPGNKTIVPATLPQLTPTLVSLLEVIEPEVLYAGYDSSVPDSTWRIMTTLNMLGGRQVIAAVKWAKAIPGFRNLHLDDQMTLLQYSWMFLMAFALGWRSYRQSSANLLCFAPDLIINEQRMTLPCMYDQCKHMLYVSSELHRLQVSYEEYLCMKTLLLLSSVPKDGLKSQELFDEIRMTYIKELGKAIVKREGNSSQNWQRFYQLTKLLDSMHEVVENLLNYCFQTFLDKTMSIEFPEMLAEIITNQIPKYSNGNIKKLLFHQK
Put plainly: Displacement of [3H]dexamethasone from human glucocorticoid receptor expressed in recombinant baculovirus. In general terms: Displacement assays read how much labelled ligand stays bound in the presence of the test substance.

The target of data set [2] is T1, Glucocorticoid receptor. Put plainly: Antagonist activity at human glucocorticoid receptor in SW1353 cells assessed as inhibition of dexamethasone-induced luciferase expression by MMTV5 reporter gene assay. Type of data set: functional, cell-based. In general terms: A reporter such as luciferase makes a cellular process visible.
For data set [3], the target named is T1, Glucocorticoid receptor. Put plainly: Binding affinity to glucocorticoid receptor in SW1353 cells by whole-cell binding assay. Type of data set: cell-based.
The target in another data set is CYP2C19 (Homo sapiens, UniProt P33261). The data set is described as follows: Inhibition of CYP2C19 at 1 uM. In kind it is ADME.
The next data set concerns the target CYP2D6 (Homo sapiens, UniProt P10635). Put plainly: Inhibition of CYP2D6 at 1 uM. Type of data set: ADME.
Another data set concerns the target CYP2C9 (Homo sapiens, UniProt P11712). The data set is described as follows: Inhibition of CYP2C9 at 1 uM. Type of data set: ADME.

Chain of CYP2C19 (P33261 whole entry): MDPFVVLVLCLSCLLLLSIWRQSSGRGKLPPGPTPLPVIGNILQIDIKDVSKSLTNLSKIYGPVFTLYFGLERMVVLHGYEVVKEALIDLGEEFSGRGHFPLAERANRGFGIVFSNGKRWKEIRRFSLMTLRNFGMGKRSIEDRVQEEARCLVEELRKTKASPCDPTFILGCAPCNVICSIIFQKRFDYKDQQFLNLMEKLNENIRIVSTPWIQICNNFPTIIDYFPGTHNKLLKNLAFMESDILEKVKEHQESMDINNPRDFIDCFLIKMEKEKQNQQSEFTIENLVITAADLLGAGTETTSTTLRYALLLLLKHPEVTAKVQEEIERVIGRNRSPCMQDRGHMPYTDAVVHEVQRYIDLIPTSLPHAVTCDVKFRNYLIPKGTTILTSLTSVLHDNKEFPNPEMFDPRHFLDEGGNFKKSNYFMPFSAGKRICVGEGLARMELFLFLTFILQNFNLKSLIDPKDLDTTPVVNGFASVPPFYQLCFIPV
Chain of CYP2D6 (P10635 whole entry): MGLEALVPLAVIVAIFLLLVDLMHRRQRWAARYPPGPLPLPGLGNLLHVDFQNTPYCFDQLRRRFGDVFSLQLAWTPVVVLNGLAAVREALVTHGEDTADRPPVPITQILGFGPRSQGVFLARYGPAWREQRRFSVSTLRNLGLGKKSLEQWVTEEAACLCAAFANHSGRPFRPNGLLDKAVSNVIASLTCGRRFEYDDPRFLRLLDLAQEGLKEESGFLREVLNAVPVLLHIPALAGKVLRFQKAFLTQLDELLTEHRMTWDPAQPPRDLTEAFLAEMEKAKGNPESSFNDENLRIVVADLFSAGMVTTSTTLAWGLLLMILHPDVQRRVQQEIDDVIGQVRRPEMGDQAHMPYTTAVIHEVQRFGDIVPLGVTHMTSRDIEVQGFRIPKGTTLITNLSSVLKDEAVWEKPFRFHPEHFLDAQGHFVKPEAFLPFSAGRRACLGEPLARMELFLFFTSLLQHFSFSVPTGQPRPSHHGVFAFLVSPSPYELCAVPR
Chain of CYP2C9 (P11712 whole entry): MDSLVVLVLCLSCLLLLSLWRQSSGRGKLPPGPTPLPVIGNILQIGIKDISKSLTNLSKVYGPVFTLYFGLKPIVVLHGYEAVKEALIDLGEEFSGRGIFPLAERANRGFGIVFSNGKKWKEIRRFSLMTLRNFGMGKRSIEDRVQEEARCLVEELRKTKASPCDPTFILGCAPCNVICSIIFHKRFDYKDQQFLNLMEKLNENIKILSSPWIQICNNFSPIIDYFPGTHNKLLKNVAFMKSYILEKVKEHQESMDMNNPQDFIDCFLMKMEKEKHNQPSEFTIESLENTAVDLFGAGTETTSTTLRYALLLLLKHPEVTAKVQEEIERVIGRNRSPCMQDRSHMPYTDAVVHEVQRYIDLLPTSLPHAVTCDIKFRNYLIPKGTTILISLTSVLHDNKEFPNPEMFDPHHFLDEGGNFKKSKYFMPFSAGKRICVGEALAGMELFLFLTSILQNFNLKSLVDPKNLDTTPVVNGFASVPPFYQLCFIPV

As to `CC(C)(C)c1ccc(S(=O)(=O)N2CCC3=CC(=O)CCC3(Cc3ccc(N4CCOCC4)cc3)C2)cc1` (centres undefined), the results for the Ki on Glucocorticoid receptor [1] and at Glucocorticoid receptor [2] were 10 nM and 400 nM, respectively. With `COc1ccc(N2CCC3=CC(=O)CCC3(Cc3ccccc3)C2)cc1` (centres undefined), the Ki at Glucocorticoid receptor [1] was > 5000 nM. As to `CC(C)(C)c1ccc(S(=O)(=O)N2CCC3=CC(=O)CC[C@]3(Cc3ccccc3)C2)cc1`, the figures for the inhibition constant Ki on Glucocorticoid receptor [1] and on Glucocorticoid receptor [2] were 4 nM and 200 nM, respectively. For the compound `O=C1C=C2CCN(S(=O)(=O)c3ccc(-c4ccccc4)cc3)CC2(Cc2ccccc2)CC1` (centres undefined), the inhibition constant Ki at Glucocorticoid receptor [1] is 55 nM. For `CS(=O)(=O)Nc1cccc(S(=O)(=O)N2CCC3=CC(=O)CCC3(Cc3ccccc3)C2)c1` (centres undefined), the inhibition constant Ki on Glucocorticoid receptor [1] was found to be 2100 nM. For the compound `O=C1C=C2CCN(S(=O)(=O)c3ccc(N4CCOCC4)cc3)CC2(Cc2ccccc2)CC1` (centres undefined), the Ki on Glucocorticoid receptor [1] was 64 nM. Regarding `CC(C)(C)c1ccc(S(=O)(=O)N2CCC3=CC(=O)CCC3(Cc3ccc(Br)cc3)C2)cc1` (centres undefined), the Ki on Glucocorticoid receptor [1] came out at 9 nM; on Glucocorticoid receptor [2], 200 nM.

For `COc1cccc(CC23CCC(=O)C=C2CCN(S(=O)(=O)c2ccc(C(C)(C)C)cc2)C3)c1` (centres undefined), on Glucocorticoid receptor [1], the Ki stood at 76 nM. For the compound `COc1ccc(C[C@]23CCC(=O)C=C2CCN(S(=O)(=O)c2ccc(C(C)(C)C)cc2)C3)cc1`, the Ki at Glucocorticoid receptor [1] was 4 nM; on Glucocorticoid receptor [2] it was 200 nM; on Glucocorticoid receptor [3], 352 nM. As for `CC(C)(C)c1ccc(S(=O)(=O)N2CCC3=CC(=O)CC[C@@]3(Cc3ccccc3)C2)cc1`, at Glucocorticoid receptor [1], the inhibitory constant (Ki) was > 10000 nM.

On to `CC#C[C@@]1(O)CC[C@@]2(Cc3ccccc3)c3ccc(O)cc3CC[C@@H]2C1`, for which the inhibition constant (Ki) at Glucocorticoid receptor [1] came out at 0.6 nM; on Glucocorticoid receptor [2], 4 nM; at Glucocorticoid receptor [3], 5.5 nM.

As for `CC(C)(C)c1ccc(S(=O)(=O)N2CCC3=CC(=O)CCC3(Cc3ccc(-c4ccncc4)cc3)C2)cc1` (racemic), the inhibition at 1 µM at CYP2C19 amounted to 61%; at CYP2D6 it was 44%; on CYP2C9, 76%. Further, the results for the Ki on Glucocorticoid receptor [1] and at Glucocorticoid receptor [2] were 2 nM and 180 nM, respectively. As for `CC(C)(C)c1ccc(S(=O)(=O)N2CCC3=CC(=O)CCC3(Cc3ccc(N4CCCCC4)cc3)C2)cc1` (racemic), the Ki was 9 nM on Glucocorticoid receptor [1] and > 1000 nM at Glucocorticoid receptor [2]. Regarding `CCCCS(=O)(=O)N1CCC2=CC(=O)CCC2(Cc2ccccc2)C1` (racemic), the inhibition constant (Ki) on Glucocorticoid receptor [1] is > 10000 nM. Consider `O=C1C=C2CCN(Cc3ccccc3)CC2(Cc2ccccc2)CC1` (racemic), for which the Ki on Glucocorticoid receptor [1] is 3700 nM. Take `O=C1C=C2CCN(S(=O)(=O)c3cccc(Cl)c3)CC2(Cc2ccccc2)CC1` (racemic): the inhibition constant (Ki) on Glucocorticoid receptor [1] was determined as 432 nM. For the compound `O=C1C=C2CCN(S(=O)(=O)c3ccc(Cl)cc3)CC2(Cc2ccccc2)CC1` (racemic), the Ki at Glucocorticoid receptor [1] turned out to be 193 nM. For `CC(C)(C)c1ccc(S(=O)(=O)N2CCC3=CC(=O)CCC3(Cc3ccccc3)C2)cc1` (racemic), the Ki is 14 nM at Glucocorticoid receptor [1] and > 1000 nM at Glucocorticoid receptor [2]. On to `COc1ccc(CN2CCC3=CC(=O)CCC3(Cc3ccccc3)C2)cc1` (racemic), for which the inhibition constant (Ki) at Glucocorticoid receptor [1] worked out at 2250 nM. Still for that read-out and setting: the same measure for `O=C1C=C2CCN(Cc3ccncc3)CC2(Cc2ccccc2)CC1` (racemic): > 10000 nM; for `O=C1C=C2CCN(S(=O)(=O)c3ccccc3C(F)(F)F)CC2(Cc2ccccc2)CC1` (racemic): 4450 nM.

Take `CS(=O)(=O)Nc1ccccc1S(=O)(=O)N1CCC2=CC(=O)CCC2(Cc2ccccc2)C1` (racemic): the Ki at Glucocorticoid receptor [1] is 1950 nM. As to `O=C1C=C2CCN(S(=O)(=O)c3cccc([N+](=O)[O-])c3)CC2(Cc2ccccc2)CC1` (racemic), the Ki at Glucocorticoid receptor [1] stood at 3000 nM. Still for that read-out and setting: the same measure for `O=C1C=C2CCN(S(=O)(=O)c3ccc([N+](=O)[O-])cc3)CC2(Cc2ccccc2)CC1` (racemic): 1250 nM.

Consider `COc1cccc(S(=O)(=O)N2CCC3=CC(=O)CCC3(Cc3ccccc3)C2)c1` (racemic), for which the inhibitory constant (Ki) on Glucocorticoid receptor [1] was determined as 196 nM. For the compound `CS(=O)(=O)Nc1ccc(S(=O)(=O)N2CCC3=CC(=O)CCC3(Cc3ccccc3)C2)cc1` (racemic), the Ki at Glucocorticoid receptor [1] came out at 950 nM. Still for that read-out and setting: the value for `CCCCC(=O)N1CCC2=CC(=O)CCC2(Cc2ccccc2)C1` (racemic) was > 10000 nM. Still for that read-out and setting: the value for `O=C1C=C2CCN(C(=O)Nc3ccccc3)CC2(Cc2ccccc2)CC1` (racemic) was > 10000 nM. The same measure, in the same setting: the value for `COc1ccc(S(=O)(=O)N2CCC3=CC(=O)CCC3(Cc3ccccc3)C2)cc1` (racemic) was 216 nM. Take `COc1ccc(S(=O)(=O)N2CCC3=CC(=O)CCC3(Cc3ccccc3)C2)cc1OC` (racemic): the Ki on Glucocorticoid receptor [1] came to 1300 nM. Consider `O=C1C=C2CCN(S(=O)(=O)c3ccc(Oc4ccccc4)cc3)CC2(Cc2ccccc2)CC1` (racemic), for which the inhibition constant Ki at Glucocorticoid receptor [1] came out at 163 nM. With `CC(=O)Nc1ccc(S(=O)(=O)N2CCC3=CC(=O)CCC3(Cc3ccccc3)C2)cc1` (racemic), the Ki on Glucocorticoid receptor [1] was 750 nM. As to `CN(C)c1ccc(S(=O)(=O)N2CCC3=CC(=O)CCC3(Cc3ccccc3)C2)cc1` (racemic), at Glucocorticoid receptor [1], the inhibitory constant (Ki) was 113 nM. Turning to `CC(C)(C)c1ccc(S(=O)(=O)N2CCC3=CC(=O)CCC3(Cc3ccc([N+](=O)[O-])cc3)C2)cc1` (racemic), the Ki on Glucocorticoid receptor [1] was 45 nM. Take `CN(C)c1ccc(CC23CCC(=O)C=C2CCN(S(=O)(=O)c2ccc(C(C)(C)C)cc2)C3)cc1` (racemic): the Ki at Glucocorticoid receptor [1] was 15 nM; on Glucocorticoid receptor [2], > 1000 nM. As for `CC(C)(C)c1ccc(S(=O)(=O)N2CCC3=CC(=O)CCC3(Cc3ccc(C#N)cc3)C2)cc1` (racemic), the inhibitory constant (Ki) on Glucocorticoid receptor [1] stood at 65 nM.

For the compound `CC(C)(C)c1ccc(S(=O)(=O)N2CCC3=CC(=O)CCC3(Cc3ccc(N)cc3)C2)cc1` (racemic), the Ki at Glucocorticoid receptor [1] was 99 nM. Consider `CC(C)(C)c1ccc(S(=O)(=O)N2CCC3=CC(=O)CCC3(Cc3ccc(NS(C)(=O)=O)cc3)C2)cc1` (racemic), for which the inhibition constant Ki on Glucocorticoid receptor [1] was 13 nM; at Glucocorticoid receptor [2], > 1000 nM.

Regarding `CN(C)S(=O)(=O)Nc1ccc(CC23CCC(=O)C=C2CCN(S(=O)(=O)c2ccc(C(C)(C)C)cc2)C3)cc1` (racemic), the figures for the inhibition constant Ki on Glucocorticoid receptor [1] and on Glucocorticoid receptor [2] were 13 nM and 323 nM, respectively. As to `N#Cc1ccccc1S(=O)(=O)N1CCC2=CC(=O)CCC2(Cc2ccccc2)C1` (racemic), the Ki on Glucocorticoid receptor [1] is 1000 nM. Still for that read-out and setting: the value for `O=C1C=C2CCN(S(=O)(=O)c3ccc(F)cc3)CC2(Cc2ccccc2)CC1` (racemic) was 800 nM. For the compound `COc1cccc(OC)c1S(=O)(=O)N1CCC2=CC(=O)CCC2(Cc2ccccc2)C1` (racemic), at Glucocorticoid receptor [1], the inhibition constant (Ki) was > 10000 nM. Consider `O=C1C=C2CCN(S(=O)(=O)c3ccccc3)CC2(Cc2ccccc2)CC1` (racemic), for which the Ki on Glucocorticoid receptor [1] came out at 225 nM. Still for that read-out and setting: the value for `O=C1C=C2CCN(S(=O)(=O)Nc3ccccc3)CC2(Cc2ccccc2)CC1` (racemic) was 1200 nM; that for `CS(=O)(=O)c1ccc(S(=O)(=O)N2CCC3=CC(=O)CCC3(Cc3ccccc3)C2)cc1` (racemic) was 137 nM.

`Cc1ccc(S(=O)(=O)N2CCC3=CC(=O)CCC3(Cc3ccccc3)C2)cc1` (racemic): the Ki on Glucocorticoid receptor [1] worked out at 99 nM. On to `CC(=O)Nc1ccc(CC23CCC(=O)C=C2CCN(S(=O)(=O)c2ccc(C(C)(C)C)cc2)C3)cc1` (racemic), for which the Ki is 56 nM at Glucocorticoid receptor [1] and > 1000 nM on Glucocorticoid receptor [2]. Consider `CC(C)(C)c1ccc(S(=O)(=O)N2CCC3=CC(=O)CCC3(Cc3ccc(F)cc3)C2)cc1` (racemic), for which the Ki on Glucocorticoid receptor [1] was 5 nM; at Glucocorticoid receptor [2], > 1000 nM. For the compound `COc1ccc(CC23CCC(=O)C=C2CCN(S(=O)(=O)c2ccc(C(C)(C)C)cc2)C3)cc1` (racemic), the Ki at Glucocorticoid receptor [1] stood at 6 nM; on Glucocorticoid receptor [2] it was 230 nM. As for `O=C1C=C2CCN(C(=O)c3ccccc3)CC2(Cc2ccccc2)CC1` (racemic), the Ki at Glucocorticoid receptor [1] is > 10000 nM.

What is called Ki is the equilibrium dissociation constant of an inhibitor or competing ligand from its target. For orientation: inhibition means the relative decrease from the control value, in per cent.

Values taken from ChEMBL document CHEMBL1139829, “2-Benzenesulfonyl-8a-benzyl-hexahydro-2H-isoquinolin-6-ones as selective glucocorticoid receptor antagonists” (Bioorg Med Chem Lett, 2007).
